Entries after “also recorded” stand apart in the source; their conditions may differ. {5AmMC6} = amino-modifier C6 linker (IDT), here bearing the Gd-DOTA label; l = locked nucleic acid (LNA); d = 2'-deoxy (DNA)
What was measured:
[1] = at a neutral pH of 7; cited from earlier work
[2] = Biodistribution of Gd-ASO after intratumoral injection, ICP-MS; type: in vivo, 4T1 tumor bearing Balb/CJRj mice
Protocol: Methods: Gadolinium-labeled ASOs were synthesized as described in example 41. Spermine-Chol Gd-ASO complexes were prepared using the hydrophobic ionpairing method as described in example 43. The ASO complex was concentrated by freeze-drying, dissolved i in DMSO and embedded into NCCell (SuBen: GTH: EtOH: DMSO 55:20:2:15) according to example 45. The final Gd-ASO concentration in the NCCell was […]. Free Gd-ASO was prepared in PBS buffer at a concentration of 0.95 μg/μL.
On Day 0, 4T1 tumor bearing Balb/CJRj mice were, under anesthesia (isoflurane), injected intratumorally with 50 μL of NCCell or 42 μL of free Gd-ASO in PBS, with a total concentration of 40 μg Gd-ASO per injection. […] Free ASO was injected using a 23G needle.
Blood was collected from different groups 10 minutes, 1 hour, 4 hours, 24 hours, 72 hours and 5 days after treatment. Organs and other fluids (liver, spleen, lungs, kidneys) were harvested 24 hours and 5 days after treatment. For sample processing, full organ weight was recorded, as well as the weight of the tissue used, and was further processed for ICP-MS measurements. To prepare tissue for ICP-MS analysis, 50-100 mg of organs or NCCell were digested in 500 μL HNO3, (69%) 50 μL HCl (37%) and 300 μL H2O2 (35%) at 65° C. overnight followed by further dilutions in water and 2% HCl and subjected to ICP-MS analysis using Ir (0.5 ppb) as internal standard.

CCN(CCO)CCCOc1ccc2c(Nc3cc(CC(=O)Nc4cccc(F)c4)[nH]n3)ncnc2c1 [AZD281]
logP [1]: 2

free ASO: Gd-DOTA labelled ASO /5AmMC6/+G*+T*+C*A*C*A*A*T*G*C*A*T*T*+C*+T*+A in PBS (DNA GTCACAATGCATTCTA; sugars from the 5' end l3 d10 l3, all phosphorothioate, 5' {5AmMC6}, methylation of C not given here; Gd-DOTA attached via 5' amino linker)
Gd-ASO concentration in liver, spleen, kidney and lung ([2]; 24 and 120 hours after intratumoral injection of 40 μg Gd-ASO): highest concentration of free ASO was observed in the lungs, followed by the liver and spleen | Gd-ASO in blood ([2]; 10 minutes to 5 days after intratumoral injection, listed as free ASOs): could be detected 10 minutes after injection; also recorded: no detectable Gd signal in the blood at later timepoints

From patent publication US20250332283A1, “NUCLEOTIDE DELIVERY FROM INJECTABLE HYDROPHOBIC BIOMATERIAL” (DANMARKS TEKNISKE UNIVERSITET, priority 2022, published 2025)
